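Five concentrations, 48 hours, 96-well plates. TGI is the concentration that stops growth completely.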
Assays:
Assay in all cases: growth of human tumour cells (NCI), 48 h
786-0 renal = system: 786-0 renal
A498 renal = system: A498 renal
A549 NSCLC = system: A549 NSCLC
ACHN renal = system: ACHN renal
BT-549 breast = system: BT-549 breast
CAKI-1 renal = system: CAKI-1 renal
CCRF-CEM leukemia = system: CCRF-CEM leukemia
COLO 205 colon = system: COLO 205 colon
DU-145 prostate = system: DU-145 prostate
HCC-2998 colon = system: HCC-2998 colon
HCT-116 colon = system: HCT-116 colon
HCT-15 colon = system: HCT-15 colon
HL-60(TB) leukemia = system: HL-60(TB) leukemia
HOP-62 NSCLC = system: HOP-62 NSCLC
HOP-92 NSCLC = system: HOP-92 NSCLC
HS 578T breast = system: HS 578T breast
HT29 colon = system: HT29 colon
IGROV1 ovarian = system: IGROV1 ovarian
K-562 leukemia = system: K-562 leukemia
KM12 colon = system: KM12 colon
LOX IMVI melanoma = system: LOX IMVI melanoma
M14 melanoma = system: M14 melanoma
MALME-3M melanoma = system: MALME-3M melanoma
MCF7 breast = system: MCF7 breast
MDA-MB-231 breast = system: MDA-MB-231 breast
MDA-MB-435 = system: MDA-MB-435
MDA-N = system: MDA-N
MOLT-4 leukemia = system: MOLT-4 leukemia
NCI-H23 lung = system: NCI-H23 lung
NCI-H460 lung = system: NCI-H460 lung
NCI/ADR-RES ovarian = system: NCI/ADR-RES ovarian
OVCAR-3 ovarian = system: OVCAR-3 ovarian
OVCAR-4 ovarian = system: OVCAR-4 ovarian
OVCAR-5 ovarian = system: OVCAR-5 ovarian
PC-3 prostate = system: PC-3 prostate
RPMI-8226 leukemia = system: RPMI-8226 leukemia
RXF 393 renal = system: RXF 393 renal
SF-268 CNS = system: SF-268 CNS
SF-295 CNS = system: SF-295 CNS
SF-539 CNS = system: SF-539 CNS
SK-MEL-2 melanoma = system: SK-MEL-2 melanoma
SK-MEL-28 melanoma = system: SK-MEL-28 melanoma
SK-OV-3 ovarian = system: SK-OV-3 ovarian
SN12C renal = system: SN12C renal
SNB-19 CNS = system: SNB-19 CNS
SNB-75 CNS = system: SNB-75 CNS
SR leukemia = system: SR leukemia
SW-620 colon = system: SW-620 colon
T-47D breast = system: T-47D breast
TK-10 renal = system: TK-10 renal
U251 CNS = system: U251 CNS
UACC-257 melanoma = system: UACC-257 melanoma
UACC-62 melanoma = system: UACC-62 melanoma
UO-31 renal = system: UO-31 renal
EKVX NSCLC = system: EKVX NSCLC
NCI-H226 lung = system: NCI-H226 lung
OVCAR-8 ovarian = system: OVCAR-8 ovarian
SK-MEL-5 melanoma = system: SK-MEL-5 melanoma
NCI-H522 lung = system: NCI-H522 lung

OCC1OC(NC(=S)NCSCCC(F)(F)C(F)(F)C(F)(F)C(F)(F)C(F)(F)C(F)(F)F)C(O)C(O)C1O (stereo not given)
TGI (786-0 renal): > 100 µM | TGI (A498 renal): 12.6 µM | TGI (A549 NSCLC): > 100 µM | TGI (ACHN renal): > 100 µM | TGI (BT-549 breast): > 100 µM | TGI (CAKI-1 renal): > 100 µM | TGI (CCRF-CEM leukemia): 91.3 µM | TGI (COLO 205 colon): > 100 µM | TGI (DU-145 prostate): > 100 µM | TGI (HCC-2998 colon): > 100 µM | TGI (HCT-116 colon): > 100 µM | TGI (HCT-15 colon): > 100 µM | TGI (HL-60(TB) leukemia): > 100 µM | TGI (HOP-62 NSCLC): > 100 µM | TGI (HOP-92 NSCLC): 66.4 µM | TGI (HS 578T breast): > 100 µM | TGI (HT29 colon): > 100 µM | TGI (IGROV1 ovarian): > 100 µM | TGI (K-562 leukemia): 56.4 µM | TGI (KM12 colon): > 100 µM | TGI (LOX IMVI melanoma): > 100 µM | TGI (M14 melanoma): 62.1 µM | TGI (MALME-3M melanoma): > 100 µM | TGI (MCF7 breast): > 100 µM | TGI (MDA-MB-231 breast): > 100 µM | TGI (MDA-MB-435): > 100 µM | TGI (MDA-N): > 100 µM | TGI (MOLT-4 leukemia): > 100 µM | TGI (NCI-H23 lung): > 100 µM | TGI (NCI-H460 lung): > 100 µM | TGI (NCI/ADR-RES ovarian): > 100 µM | TGI (OVCAR-3 ovarian): > 100 µM | TGI (OVCAR-4 ovarian): > 100 µM | TGI (OVCAR-5 ovarian): > 100 µM | TGI (PC-3 prostate): > 100 µM | TGI (RPMI-8226 leukemia): > 100 µM | TGI (RXF 393 renal): > 100 µM | TGI (SF-268 CNS): > 100 µM | TGI (SF-295 CNS): 60.5 µM | TGI (SF-539 CNS): 47.2 µM | TGI (SK-MEL-2 melanoma): > 100 µM | TGI (SK-MEL-28 melanoma): > 100 µM | TGI (SK-OV-3 ovarian): > 100 µM | TGI (SN12C renal): > 100 µM | TGI (SNB-19 CNS): > 100 µM | TGI (SNB-75 CNS): > 100 µM | TGI (SR leukemia): > 100 µM | TGI (SW-620 colon): > 100 µM | TGI (T-47D breast): > 100 µM | TGI (TK-10 renal): > 100 µM | TGI (U251 CNS): 46.6 µM | TGI (UACC-257 melanoma): > 100 µM | TGI (UACC-62 melanoma): > 100 µM | TGI (UO-31 renal): > 100 µM

C/C(O)=C/c1nc2sc(C)c(C)c2c(=O)s1
TGI (786-0 renal): > 100 µM | TGI (A498 renal): > 100 µM | TGI (A549 NSCLC): > 100 µM | TGI (ACHN renal): > 100 µM | TGI (BT-549 breast): > 100 µM | TGI (CAKI-1 renal): > 100 µM | TGI (CCRF-CEM leukemia): > 100 µM | TGI (COLO 205 colon): > 100 µM | TGI (DU-145 prostate): > 100 µM | TGI (EKVX NSCLC): > 100 µM | TGI (HCT-116 colon): > 100 µM | TGI (HCT-15 colon): > 100 µM | TGI (HL-60(TB) leukemia): > 100 µM | TGI (HOP-62 NSCLC): > 100 µM | TGI (HOP-92 NSCLC): > 100 µM | TGI (HS 578T breast): 74 µM | TGI (HT29 colon): > 100 µM | TGI (IGROV1 ovarian): > 100 µM | TGI (K-562 leukemia): > 100 µM | TGI (KM12 colon): > 100 µM | TGI (LOX IMVI melanoma): > 100 µM | TGI (M14 melanoma): > 100 µM | TGI (MALME-3M melanoma): > 100 µM | TGI (MCF7 breast): > 100 µM | TGI (MDA-MB-231 breast): > 100 µM | TGI (MDA-MB-435): > 100 µM | TGI (MDA-N): > 100 µM | TGI (NCI-H226 lung): > 100 µM | TGI (NCI-H23 lung): > 100 µM | TGI (NCI/ADR-RES ovarian): > 100 µM | TGI (OVCAR-3 ovarian): > 100 µM | TGI (OVCAR-4 ovarian): > 100 µM | TGI (OVCAR-5 ovarian): > 100 µM | TGI (OVCAR-8 ovarian): > 100 µM | TGI (PC-3 prostate): 69.5 µM | TGI (RPMI-8226 leukemia): > 100 µM | TGI (RXF 393 renal): > 100 µM | TGI (SF-268 CNS): > 100 µM | TGI (SF-295 CNS): > 100 µM | TGI (SF-539 CNS): > 100 µM | TGI (SK-MEL-2 melanoma): 65.1 µM | TGI (SK-MEL-28 melanoma): > 100 µM | TGI (SK-MEL-5 melanoma): > 100 µM | TGI (SK-OV-3 ovarian): > 100 µM | TGI (SN12C renal): > 100 µM | TGI (SNB-19 CNS): > 100 µM | TGI (SNB-75 CNS): > 100 µM | TGI (SW-620 colon): > 100 µM | TGI (T-47D breast): > 100 µM | TGI (TK-10 renal): > 100 µM | TGI (U251 CNS): > 100 µM | TGI (UACC-257 melanoma): > 100 µM | TGI (UACC-62 melanoma): > 100 µM | TGI (UO-31 renal): > 100 µM

CC(C)Cn1cnnc1NS(=O)(=O)c1cc(C(=O)NN)c(Cl)cc1S
TGI (786-0 renal): > 10 µM | TGI (A498 renal): > 10 µM | TGI (A549 NSCLC): > 10 µM | TGI (ACHN renal): > 10 µM | TGI (BT-549 breast): > 10 µM | TGI (CAKI-1 renal): > 10 µM | TGI (CCRF-CEM leukemia): > 10 µM | TGI (COLO 205 colon): > 10 µM | TGI (DU-145 prostate): > 10 µM | TGI (EKVX NSCLC): > 10 µM | TGI (HCC-2998 colon): > 10 µM | TGI (HCT-116 colon): > 10 µM | TGI (HCT-15 colon): > 10 µM | TGI (HL-60(TB) leukemia): > 10 µM | TGI (HOP-62 NSCLC): > 10 µM | TGI (HOP-92 NSCLC): > 10 µM | TGI (HS 578T breast): > 10 µM | TGI (HT29 colon): > 10 µM | TGI (IGROV1 ovarian): > 10 µM | TGI (K-562 leukemia): > 10 µM | TGI (KM12 colon): > 10 µM | TGI (LOX IMVI melanoma): > 10 µM | TGI (M14 melanoma): > 10 µM | TGI (MALME-3M melanoma): > 10 µM | TGI (MCF7 breast): > 10 µM | TGI (MDA-MB-231 breast): > 10 µM | TGI (MDA-MB-435): > 10 µM | TGI (MDA-N): > 10 µM | TGI (MOLT-4 leukemia): > 10 µM | TGI (NCI-H226 lung): > 10 µM | TGI (NCI-H23 lung): > 10 µM | TGI (NCI-H460 lung): > 10 µM | TGI (NCI-H522 lung): > 10 µM | TGI (NCI/ADR-RES ovarian): > 10 µM | TGI (OVCAR-3 ovarian): > 10 µM | TGI (OVCAR-4 ovarian): > 10 µM | TGI (OVCAR-5 ovarian): > 10 µM | TGI (OVCAR-8 ovarian): > 10 µM | TGI (PC-3 prostate): > 10 µM | TGI (RPMI-8226 leukemia): > 10 µM | TGI (RXF 393 renal): > 10 µM | TGI (SF-268 CNS): > 10 µM | TGI (SF-295 CNS): > 10 µM | TGI (SF-539 CNS): > 10 µM | TGI (SK-MEL-2 melanoma): > 10 µM | TGI (SK-MEL-28 melanoma): > 10 µM | TGI (SK-MEL-5 melanoma): > 10 µM | TGI (SK-OV-3 ovarian): > 10 µM | TGI (SN12C renal): > 10 µM | TGI (SNB-19 CNS): > 10 µM | TGI (SNB-75 CNS): > 10 µM | TGI (SW-620 colon): > 10 µM | TGI (T-47D breast): > 10 µM | TGI (TK-10 renal): > 10 µM | TGI (U251 CNS): > 10 µM | TGI (UACC-257 melanoma): > 10 µM | TGI (UACC-62 melanoma): > 10 µM

Source: PubChem BioAssay (NCI)
